Key:
[1] = Diffusion across excised human epidermis, flow-through diffusion cells, finite dose; conditions: test spray (5% w/v 1,10-phenanthroline + 5% w/v octyl salicylate in 95% ethanol) vs control without enhancer, 24 h, 5 μL/cm^2, p<0.01
Procedure: The diffusion experiments were performed using excised human epidermis as the model membrane. These experiments were performed over 24 h with stainless steel, flow-through diffusion cells based on those previously described, (Cooper, E. R. J. Pharm. Sci. 1984, 73, 1153-1156.) except that the cell was modified to increase the diffusional area to 1.0 cm^2. The formulations were applied using a finite dose technique (Franz, T. J. Curr. Probl. Dermatol. 1978, 7, 58-68.) to mimic clinical dosing conditions at an applied dose volume of 5 μL/cm^2. A piece of stainless steel wire mesh was placed directly below the skin in the receptor chamber of the diffusion cell to maintain a turbulent flow of receptor solution below the skin. The diffusion cells were maintained at a flow rate of approximately 1.0 ml/cm^2/h by a microcassette peristaltic pump (Watson Marlow 505S, UK). The cells were kept at 32±0.5° C. by a heater bar and the samples are collected into appropriately sized plastic vials on an automated fraction collector (Isco Retriever II, Lincoln, Nebr.) at specified intervals. […]
Samples were analysed for 1,10-phenanthroline directly by RP-HPLC using the following conditions; Column—Waters Symmetry C18 column (3.9×150 mm) with a 5 μm support size; Mobile phase—20% Acetonitrile buffered with 0.01 M KH2PO4, pH=2.80; Flow rate—0.9 mL/min; Absorbance—235 nm; and Injection volume—20 μL.

[2] = molar ratio 1:1 (zinc: Aβ); read-out: KD of high affinity zinc binding; cited from earlier work

Compound	increase in the transdermal delivery of 1,10-phenanthroline across the skin [1] [fold]	Kd [2] [nM]
c1cnc2c(c1)ccc1cccnc12 [1,10-phenanthroline]	1.3	
Aβ: polypeptide, major component of the amyloid deposits in Alzheimer's disease		107

From patent US20070275943A1, “Method and Composition for Treatment or Prophylaxis of Amyloidosis Disorders” (Acrux DDS Pty Ltd., priority 2003, published 2007)
